Results reported in US20240408218A1, “CONJUGATES OF GLUCAGON AND AMPK ACTIVATORS” (KØBENHAVNS UNIVERSITET, priority 2021, published 2024).

Key:
[1] = Body weight in diet-induced obesity (DIO) mice, 7 days treatment; type: in vivo; conditions: s.c. once daily
Method: C57BL6J male mice, in the following referred to as diet-induced obesity (DIO) mice, were maintained on a high-fat diet (58% energy from fat) and had, for each study, an average body weight of more than 45 gram prior to study start. Mice were either housed individually or double-housed. The mice were maintained on a 12 h dark-light cycle at 21-23° C. Compounds were administered subcutaneously once daily (between 2 pm-5 pm) and food intake (FI) and body weight (BW) measured at the corresponding time. For body composition, measures of fat and lean mass were performed prior to the study (1-3 days prior to study start) and on the final day of the study using an MRI scanner (EchoMRI). The group of mice injected with a vehicle (saline) served as the control group.

[2] = background, Myers et al. Science 2017; cited from earlier work

Structure (SMILES)	reduction in body weight (BW %) compared to control group ([1]; FIG. 9, conjugate 100 nmol/kg or equimolar doses)	reduction in body weight percentage (BW %) ([1]; FIG. 3, conjugate 100 nmol/kg or equimolar doses)	adverse effect halting use of the compound [2]
NC(=O)c1ncn([C@@H]2O[C@H](CO)[C@@H](O)[C@H]2O)c1N [AICAR, 5-Aminoimidazole-4-carboxamide 1-β-D-ribofuranoside, reference compound]	~4%	–	–
O[C@@H]1CO[C@H]2[C@@H]1OC[C@H]2Oc1nc2c(Cl)c(-c3ccc(-c4ccccc4)cc3)cnc2[nH]1 [MK-8722, (3R,3aR,6R,6aR)-6-((6-([1,1′-biphenyl]-4-yl)-7-chloro-3H-imidazo[4,5-b]pyridin-2-yl)oxy)hexahydrofuro[3,2-b]furan-3-ol, reference compound]	–	~4%	induction of cardiac hypertrophy
